Measured values published in PMC4301837, “Aldosterone synthase inhibition: cardiorenal protection in animal disease models and translation of hormonal effects to human subjects” (Journal of Translational Medicine, 2014).
Read-outs that look alike come from different tables or passages of the source. Marks after values point to notes of the source that are not given here.

Legend:
healthy male volunteers [1] = assay: Human safety and tolerability; format: in vivo
Protocol: All adverse events were recorded during the study period. In addition, vital signs and body weight were measured daily, while blood hematologic and chemistry profiles, urinalysis, physical condition and 12-lead electrocardiograms were monitored regularly throughout the study.
An analysis of variance (ANOVA) with treatment as the classification factor was performed on orthostatic changes (standing-supine) in pre-dose systolic blood pressure, diastolic blood pressure, and heart rate measurements for each of Days 1, 7, and 14 separately.
An ANCOVA with treatment as the classification factor and baseline as the covariate was performed on change from baseline (Day 1 pre-dose) to Day 7 and Day 14 for pre-dose supine and standing systolic blood pressure (SBP), diastolic blood pressure (DBP), and heart rate and for orthostatic changes (standing–supine).

[2] = system: Ang II-stimulated aldosterone release; parameters: method as in D. Rigel, personal communication; details: dogs; ref D. Rigel, personal communication; read-out: EC50, inhibition of Ang II-stimulated aldosterone release; cited from earlier work
in vitro = details: monkey, plasma
[3] = biological target: recombinant rat 11β-hydroxylase (CYP11B1) (Rattus norvegicus, UniProt P15393); assay: biochemical
Sequence of recombinant rat 11β-hydroxylase (CYP11B1) (P15393 25-499): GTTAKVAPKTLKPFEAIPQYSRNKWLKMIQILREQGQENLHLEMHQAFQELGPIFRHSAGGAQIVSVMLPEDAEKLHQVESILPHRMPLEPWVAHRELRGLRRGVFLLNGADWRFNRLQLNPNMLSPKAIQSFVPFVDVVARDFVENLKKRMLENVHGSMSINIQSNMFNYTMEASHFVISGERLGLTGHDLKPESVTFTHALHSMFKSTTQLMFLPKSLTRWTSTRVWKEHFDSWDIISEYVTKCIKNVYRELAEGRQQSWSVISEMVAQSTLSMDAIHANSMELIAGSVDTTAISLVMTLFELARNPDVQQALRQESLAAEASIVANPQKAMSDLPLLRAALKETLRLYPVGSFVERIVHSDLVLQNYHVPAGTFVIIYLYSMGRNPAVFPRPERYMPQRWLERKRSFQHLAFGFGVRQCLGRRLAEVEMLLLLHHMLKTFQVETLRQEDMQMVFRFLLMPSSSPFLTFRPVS
Protocol: Recombinant rat CYP11B2 and CYP11B1 enzymes were prepared similarly. All cell lines were maintained in Dulbecco’s modified Eagle’s medium supplemented with 10% fetal bovine serum, 0.5× antibiotic, 800 μg/mL geneticin and 250 μg/mL hygromycin (double-selection medium; all from Invitrogen, Carlsbad, CA, USA).
Human CYP11B2 and CYP11B1 assays were performed as described previously [20]. The rat and monkey assays were conducted similarly, using 11-DOC as substrate.
Half-maximal inhibitory concentration (IC50) values were derived using a non-linear least-squares curve-fitting program (XLfit; ID Business Solutions Inc., Bridgewater, NJ, USA).
Aldosterone concentration was measured using 96-well plates. Each test sample was incubated with 0.02 µCi D-[1,2,6,7-^3H(N)]aldosterone (PerkinElmer, Boston, MA, USA) and 0.2 µg anti-aldosterone antibody (ATCC, Manassas, VA, USA) in phosphate-buffered saline containing 0.1% Triton X-100, 0.1% bovine serum albumin, and 12% glycerol (in a total volume of 200 µL) at room temperature for 1 h. Anti-mouse polyvinyltoluene (PVT) scintillation proximity assay (SPA) beads (50 µL: GE Health Sciences, Piscataway, NJ, USA) were then added to each well and incubated overnight at room temperature prior to counting in a Microbeta plate counter (PerkinElmer). […] The amount of aldosterone, cortisol or corticosterone was calculated by comparison with a standard curve.

[4] = system: ACTH-stimulated aldosterone and corticosterone synthesis; assay: animal or person; details: Rattus norvegicus; for ED50: po
healthy male volunteers [5] = assay: Human pharmacodynamics, multiple-dose phase; details: for Plasma potassium, Δ Day2 vs baseline (Day −1) / Plasma potassium, Δ Day7 vs baseline (Day −1) / Plasma potassium, Δ Day14 vs Day 7 / Plasma sodium, Δ Day2 vs baseline (Day −1) / Plasma sodium, Δ Day7 vs baseline (Day −1) / Plasma sodium, Δ Day14 vs Day 7 / Urinary potassium, Δ Day 1 vs baseline (Day −1) / Urinary potassium, Δ Day 7 vs baseline (Day −1) / Urinary potassium, Δ Day 14 vs Day 7 / Urinary sodium, Δ Day 1 vs baseline (Day −1) / Urinary sodium, Δ Day 7 vs baseline (Day −1) / Urinary sodium, Δ Day 14 vs Day 7: ANCOVA mean
[6] = LCI699 0.5 mg, Day 1, mean ± SEM

N#Cc1ccc([C@H]2CCc3cncn32)c(F)c1 [LCI699]
subjects with plasma sodium levels at or below 135 mmol/L (healthy male volunteers [1]; LCI699 0.5 mg, multiple-dose phase): two | subjects with pre-specified markers of hypoaldosteronism (mild hyponatremia, postural tachycardia, decreased body weight), discontinued (healthy male volunteers [1]; LCI699 3 mg, multiple-dose): three | subjects with plasma sodium levels at or below 135 mmol/L (healthy male volunteers [1]; LCI699 3 mg, multiple-dose phase): four | tolerability (healthy male volunteers [1]; healthy subjects, single doses up to 200 mg, multiple doses): well tolerated | adverse events considered severe (abnormal ACTH-stimulation test) (healthy male volunteers [1]; multiple-dose phase, LCI699 10 mg): only one adverse event | changes in supine systolic or diastolic blood pressure or heart rate compared with placebo (healthy male volunteers [1]; single or multiple doses): no consistent changes | EC50 [2]: 0.041 µM | fraction unbound (in vitro): 0.734 | IC50 [3]: 0.41 ± 0.005 µM | ED50 ([4]; read-out: ED50 for inhibiting ACTH-stimulated aldosterone): 1.1 mg/kg | ED50 ([4]; read-out: ED50 for inhibiting ACTH-stimulated corticosterone): 73 mg/kg | EC50 ([4]; read-out: EC50 for inhibiting ACTH-stimulated aldosterone): 0.771 µM | EC50 ([4]; read-out: EC50 for inhibiting ACTH-stimulated corticosterone): 36 µM | Plasma potassium, Δ Day2 vs baseline (Day −1) (healthy male volunteers [5]; LCI699 0.5 mg once daily): +0.20 mEq/L | Plasma potassium, Δ Day7 vs baseline (Day −1) (healthy male volunteers [5]; LCI699 0.5 mg once daily): +0.25^‡ mEq/L | Plasma potassium, Δ Day14 vs Day 7 (healthy male volunteers [5]; LCI699 0.5 mg once daily): +0.05 mEq/L | Plasma sodium, Δ Day2 vs baseline (Day −1) (healthy male volunteers [5]; LCI699 0.5 mg once daily): +0.23 mEq/L | Plasma sodium, Δ Day7 vs baseline (Day −1) (healthy male volunteers [5]; LCI699 0.5 mg once daily): −1.71^‡ mEq/L | Plasma sodium, Δ Day14 vs Day 7 (healthy male volunteers [5]; LCI699 0.5 mg once daily): +0.41 mEq/L | Urinary potassium, Δ Day 1 vs baseline (Day −1) (healthy male volunteers [5]; LCI699 0.5 mg once daily): +9.2 mEq/24 h | Urinary potassium, Δ Day 7 vs baseline (Day −1) (healthy male volunteers [5]; LCI699 0.5 mg once daily): +12.8 mEq/24 h | Urinary potassium, Δ Day 14 vs Day 7 (healthy male volunteers [5]; LCI699 0.5 mg once daily): +20.2 mEq/24 h | Urinary sodium, Δ Day 1 vs baseline (Day −1) (healthy male volunteers [5]; LCI699 0.5 mg once daily): +45.2^† mEq/24 h | Urinary sodium, Δ Day 7 vs baseline (Day −1) (healthy male volunteers [5]; LCI699 0.5 mg once daily): +3.6 mEq/24 h | Urinary sodium, Δ Day 14 vs Day 7 (healthy male volunteers [5]; LCI699 0.5 mg once daily): −25.5 mEq/24 h | change in 24 h urinary aldosterone levels from baseline (healthy male volunteers [5]; LCI699 0.5 mg, Day 1): –39% | reduction of 24 h urinary aldosterone (healthy male volunteers [5]; [6]): 39 ± 6% | reduction of plasma aldosterone (healthy male volunteers [5]; [6]): 49 ± 3% | change in pre-dose plasma ACTH from baseline (healthy male volunteers [5]; LCI699 0.5 mg, Day 6): −14.5% | increase in PRA from baseline (healthy male volunteers [5]; LCI699 0.5 mg, Day 7): 106% | increase in PRA compared with baseline (healthy male volunteers [5]; LCI699 0.5 mg, Day 14): 130% | Mean pre-dose plasma aldosterone levels (healthy male volunteers [5]; LCI699 1 mg and 3 mg once daily, Day 14): 209 to 293 pg/mL | Plasma potassium, Δ Day2 vs baseline (Day −1) (healthy male volunteers [5]; LCI699 1 mg once daily): +0.08 mEq/L | Plasma potassium, Δ Day7 vs baseline (Day −1) (healthy male volunteers [5]; LCI699 1 mg once daily): +0.12* mEq/L | Plasma potassium, Δ Day14 vs Day 7 (healthy male volunteers [5]; LCI699 1 mg once daily): −0.06 mEq/L | Plasma sodium, Δ Day2 vs baseline (Day −1) (healthy male volunteers [5]; LCI699 1 mg once daily): −0.59 mEq/L | Plasma sodium, Δ Day7 vs baseline (Day −1) (healthy male volunteers [5]; LCI699 1 mg once daily): −0.11 mEq/L | Plasma sodium, Δ Day14 vs Day 7 (healthy male volunteers [5]; LCI699 1 mg once daily): −0.01 mEq/L | Urinary potassium, Δ Day 1 vs baseline (Day −1) (healthy male volunteers [5]; LCI699 1 mg once daily): +9.7 mEq/24 h | Urinary potassium, Δ Day 7 vs baseline (Day −1) (healthy male volunteers [5]; LCI699 1 mg once daily): +17.4* mEq/24 h | Urinary potassium, Δ Day 14 vs Day 7 (healthy male volunteers [5]; LCI699 1 mg once daily): +4.2 mEq/24 h | Urinary sodium, Δ Day 1 vs baseline (Day −1) (healthy male volunteers [5]; LCI699 1 mg once daily): +76.3^‡ mEq/24 h | Urinary sodium, Δ Day 7 vs baseline (Day −1) (healthy male volunteers [5]; LCI699 1 mg once daily): +44.0 mEq/24 h | Urinary sodium, Δ Day 14 vs Day 7 (healthy male volunteers [5]; LCI699 1 mg once daily): −3.6 mEq/24 h | change in 24 h urinary aldosterone levels from baseline (healthy male volunteers [5]; LCI699 1 mg, Day 1): –39% | change in pre-dose plasma ACTH from baseline (healthy male volunteers [5]; LCI699 1 mg, Day 6): −31.4% | change in 24 h urinary aldosterone levels from baseline (healthy male volunteers [5]; LCI699 1 mg, Day 7): −12% | increase in PRA from baseline (healthy male volunteers [5]; LCI699 1 mg, Day 7): 277% | increase in PRA compared with baseline (healthy male volunteers [5]; LCI699 1 mg, Day 14): 327% | Plasma sodium, Δ Day2 vs baseline (Day −1) (healthy male volunteers [5]; LCI699 3 mg once daily): −0.73* mEq/L | Plasma sodium, Δ Day7 vs baseline (Day −1) (healthy male volunteers [5]; LCI699 3 mg once daily): −2.87^‡ mEq/L | Plasma sodium, Δ Day14 vs Day 7 (healthy male volunteers [5]; LCI699 3 mg once daily): −0.45 mEq/L | Urinary potassium, Δ Day 1 vs baseline (Day −1) (healthy male volunteers [5]; LCI699 3 mg once daily): +2.9 mEq/24 h | Urinary potassium, Δ Day 7 vs baseline (Day −1) (healthy male volunteers [5]; LCI699 3 mg once daily): +12.2 mEq/24 h | Urinary sodium, Δ Day 1 vs baseline (Day −1) (healthy male volunteers [5]; LCI699 3 mg once daily): +64.0^‡ mEq/24 h | Urinary sodium, Δ Day 7 vs baseline (Day −1) (healthy male volunteers [5]; LCI699 3 mg once daily): +22.2 mEq/24 h | Urinary sodium, Δ Day 14 vs Day 7 (healthy male volunteers [5]; LCI699 3 mg once daily): −17.2 mEq/24 h | change in 24 h urinary aldosterone levels from baseline (healthy male volunteers [5]; LCI699 3 mg, Day 1): –66% | change in pre-dose plasma ACTH from baseline (healthy male volunteers [5]; LCI699 3 mg, Day 6): −15.6% | change in 24 h urinary aldosterone levels from baseline (healthy male volunteers [5]; LCI699 3 mg, Day 7): −44% | increase in PRA from baseline (healthy male volunteers [5]; LCI699 3 mg, Day 7): 377% | increase in trough 11-DOC levels from baseline (healthy male volunteers [5]; LCI699 3 mg, Day 7): 228% | increase in PRA compared with baseline (healthy male volunteers [5]; LCI699 3 mg, Day 14): 238% | increase in pre-dose ACTH levels compared with baseline (healthy male volunteers [5]; LCI699 10 mg): 193% | increase in pre-dose plasma 11-deoxycortisol from baseline (healthy male volunteers [5]; LCI699 10 mg, Day 6): 508% | reduction in 24 h urinary cortisol (healthy male volunteers [5]; LCI699 10 mg, Day 7, one subject (second subject no change)): > 70% | plasma aldosterone following the 10 mg dose (healthy male volunteers [5]; LCI699 10 mg, data not shown): No further reduction | change in trough 11-DOC levels (healthy male volunteers [5]; LCI699 0.5 or 1 mg, Day 7): no change | effect on plasma or 24 h urinary cortisol (healthy male volunteers [5]; LCI699 0.5–3 mg, Day 1, 7 or 14): no significant effect
